Measurements: US20210379070A1, “MALONATE SALT OF VARLITINIB” (Aslan Pharmaceuticals PTE LTD, priority 2018, published 2021)
Entries after “also recorded” stand apart in the source; their conditions may differ.

How the values were obtained:
Type in all cases: physicochemical
[1] = Thermodynamic solubility (slurry in media of pH 1, 4.5 and 6.8, ca. 48 hours, HPLC; solids by XRPD); conditions: for Solid form by XRPD after thermodynamic solubility slurry: pH 1, 4.5, 6.8 media
Procedure: Slurries of each potential salt were created in media of pH 1; 4.5 and 6.8 and shaken for ca. 48 hours. The resulting solution was then analysed by HPLC and the concentration of material dissolved calculated. Remaining solids were analysed by XRPD to determine if any changes had occurred on slurrying.

[2] = Stability (storage) testing, 1 week, XRPD; conditions: for Storage testing (solid form by XRPD): ambient light, 40° C./75% RH and 80° C., 1 week
Procedure: Each potential salt was exposed to environments of 40° C./75% RH, elevated temperature (80° C.) and ambient light (ca. 22° C. in a closed vial), for 1 week to determine stability. Resulting solids were analysed by XRPD to establish if any changes had occurred.

[3] = Dynamic Vapour Sorption (DVS); conditions: for Solid form by XRPD post DVS: after exposure to varying % RH; for DVS water uptake: between 20-70% RH
Procedure: Dynamic Vapour Sorption (DVS)
Approximately 10 mg of sample was placed into a mesh vapour sorption balance pan and loaded into a DVS-1 dynamic vapour sorption balance by Surface Measurement Systems. The sample was subjected to a ramping profile from 20-90% relative humidity (RH) at 10% increments maintaining the sample at each step until a stable weight had been achieved (99.5% step completion). After completion of the sorption cycle, the sample was dried using the same procedure, but all the way down to 0% RH and finally taken back to the starting point of 20% RH. The weight change during the sorption/desorption cycles were plotted, allowing for the hygroscopic nature of the sample to be determined.

[4] = Hydration studies (slurry in acetone:water 3, 5 and 10% water, ca. 48 hours, XRPD)
Procedure: Slurries of each potential salt were created in acetone:water mixtures (3, 5 and 10% water) and shaken for ca. 48 hours. The resulting solid was then analysed by XRPD to determine if any changes had occurred on slurrying.

[5] = Salt disproportionation studies (slurry in water, XRPD at 1, 24 & 48 hours); conditions: room temperature, 1, 24 & 48 hours
Procedure: Salt Disproportionation Studies
Each potential salt was slurried in water at room temperature (ca. 22° C.), with the excess solid taken at 1, 24 & 48 hours and analysed by XRPD. The pH of the supernatant was also monitored.

[6] = Thermal analysis (TG/DTA, DSC): onset of degradation; conditions: TG/DTA (TGA)
Procedure: Thermogravimetric Analysis (TGA)
Approximately, 5 mg of material was accurately weighed into an open aluminium pan and loaded into a simultaneous thermogravimetric/differential thermal analyser (TG/DTA) and held at room temperature. The sample was then heated at a rate of 10° C./min from 25° C. to […] the change in sample weight was recorded along with any differential thermal events (DTA). Nitrogen was used as the purge gas, at a flow rate of 100 cm^3/min.
Differential Scanning calorimetry (DSC)
Approximately, 5 mg of material was weighed into an aluminium DSC pan and sealed non-hermetically with a pierced aluminium lid. The sample pan was then loaded into a Seiko DSC6200 (equipped with a cooler). The sample and reference were heated to ca. 220° C. at a scan rate of 10° C./min and the resulting heat flow response monitored.

[7] = Aqueous solubility (slurry in deionised water, 4 and 24 hours, room temperature, HPLC; solids by XRPD); conditions: for Solid form by XRPD after aqueous solubility slurry: 4 and 24 hours; for Aqueous solubility: room temperature
Procedure: Slurries of each potential salt were created in deionised water and agitated for 4 and 24 hours at room temperature. After both 4 and 24 hours, the resulting solutions were analysed by HPLC and the concentration of material dissolved calculated. Remaining solids were analysed by XRPD to determine if any changes had occurred on slurrying.

C[C@@H]1COC(Nc2ccc3ncnc(Nc4ccc(OCc5nccs5)c(Cl)c4)c3c2)=N1.O=C(O)/C=C\C(=O)O [maleate salt]
Solid form by XRPD after thermodynamic solubility slurry [1]: A change in solid form was observed by XRPD from pH1 and pH4.5
Thermodynamic solubility ([1]; pH1, ca. 48 hours): 1213.8 µg/mL
Thermodynamic solubility ([1]; pH 4.5, ca. 48 hours): 3.6 µg/mL
Thermodynamic solubility ([1]; pH 6.8, ca. 48 hours): < 0.445 µg/mL
Storage testing (solid form by XRPD) [2]: remain unchanged
Solid form by XRPD post DVS [3]: remain unchanged
DVS water uptake [3]: 1.95%
DVS water uptake overall [3]: 2.84%
Hydration study (solid form after slurrying) [4]: remained unchanged after slurrying, indicating a low hydration risk
Salt disproportionation on slurrying in water [5]: no change in form of the maleate salt on slurrying in water at 1 hr and 24 hrs. After 48 hrs the material was observed to be predominantly amorphous
Onset of degradation [6]: ca. 150 °C
Solid form by XRPD after aqueous solubility slurry [7]: remained unchanged after slurrying, with a potential increase in amorphous content
Aqueous solubility ([7]; 4 hours): 257 µg/mL
Aqueous solubility ([7]; 24 hours): 408.9 µg/mL

C[C@@H]1COC(Nc2ccc3ncnc(Nc4ccc(OCc5nccs5)c(Cl)c4)c3c2)=N1.O=C(O)CC(=O)O [malonate salt]
Solid form by XRPD after thermodynamic solubility slurry [1]: A change in solid form was observed by XRPD from pH1 and pH4.5
Thermodynamic solubility ([1]; pH1, ca. 48 hours): 768.7 µg/mL
Thermodynamic solubility ([1]; pH 4.5, ca. 48 hours): 2.8 µg/mL
Thermodynamic solubility ([1]; pH 6.8, ca. 48 hours): 2 µg/mL
Storage testing (solid form by XRPD) [2]: remained unchanged
Overall stability in the secondary screen tests ([2]; conclusion over all tests employed): good stability throughout the tests employed
Hygroscopicity ([3]; DVS): non-hygroscopic
Solid form by XRPD post DVS [3]: No change to the solid form; also recorded: no change in PXRD post DVS
DVS water uptake [3]: 0.14%
DVS water uptake overall [3]: 0.35%
Hydration study (solid form after slurrying) [4]: remain unchanged after slurrying, indicating a low hydration risk; also recorded: No disproportionation or hydration observed
Salt disproportionation on slurrying in water [5]: no form change of the malonate salt on slurrying in water; also recorded: No disproportionation or hydration observed
Solid form by XRPD after aqueous solubility slurry [7]: remain unchanged after slurrying
Aqueous solubility ([7]; 4 hours): 494.7 µg/mL
Aqueous solubility ([7]; 24 hours): 603.6 µg/mL

C[C@@H]1COC(Nc2ccc3ncnc(Nc4ccc(OCc5nccs5)c(Cl)c4)c3c2)=N1 [varlitinib, (R)—N4-[3-Chloro-4-(thiazol-2-ylmethoxy)-phenyl]-N6-(4-methyl-4,5,-dihydro-oxazol-2-yl)-quinazoline-4,6-diamine]
Onset of degradation [6]: ca. 230 °C
